Assay results as given in patent US12065430B2, “Indazole compound or salt thereof” (TAIHO PHARMACEUTICAL CO., LTD., priority 2018, dated 2024).

Columns and labels:
G12C K-Ras4B (1-169) = G12C K-Ras4B (1-169) (Homo sapiens (Human), UniProt P01116, G12C); assay: Test of compounds on whether to bind to KRASG12C (LC-MS compound binding rate); settings: final compound concentration of 2 μM, 1 μM protein, 25° C. for 2 hours
In short: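 K-Ras4B (1-169) WT and G12C (1 μM each, mixed) in 1×TBS, 0.1 mM TCEP incubated with compound (final 2 μM) 2 h at 25° C; quenched with 0.2% formic acid. Intact-protein LC-MS (ESI+, deconvoluted); binding rate = adduct signal/(adduct + unbound signal), giving selectivity over WT.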

KRAS G12C = KRAS G12C (Homo sapiens (Human), UniProt P01116, G12C); assay: Inhibitory activity on KRAS G12C nucleotide (GDP-GTP) exchange reaction (Bodipy FL GDP, SOS1, GppNHp); format: biochemical; settings: preincubation at 25° C. for 4 hours; SOS1 100 nM, GppNHp 1 μM, reaction 30 minutes
Procedure: The inhibitory activity of compounds on exchange reaction of GDP into GppNHp in Bodipy (trademark) FL-bound KRAS G12C was examined by fluorescence measurement using human recombinant KRAS G12C and SOS1 proteins.
For the preparation of KRAS G12C to which Bodipy FL GDP was bound, first, 50 μM^y KRAS G12C (amino acid region: 1-169) and 1 mM Bodipy FL GDP (Invitrogen, G22360) were incubated for 1 hour in a buffer (20 mM Tris-HCl (pH 7.5), 50 mM NaCl, 1 mM DTT) in ice in the presence of 2.5 mM EDTA. Thereafter, MgCl2 with a final concentration of 10 mM was added, and the mixture was incubated at room temperature for 30 minutes. The protein was allowed to pass through a NAP-5 column to remove free nucleotides and was used for compound evaluation.
For the measurement of the inhibitory activity of compounds on nucleotide exchange reaction, first, the compound of the present invention was diluted stepwise with dimethyl sulfoxide (DMSO). […] The change in fluorescence intensity of Bodipy FL (excitation wavelength: 485 nm, fluorescence wavelength: 520 nm) immediately after the start of reaction and after 30 minutes from the start of reaction was standardized. […]

NCI-H358 cells = assay: Growth inhibition activity on KRAS-G12C mutant cell line (NCI-H358) (in vitro, CellTiter-Glo2.0); format: cell-based; settings: Homo sapiens, NCI-H358, 72 h, 3-day culture in the presence of the compound
Procedure: NCI-H358 cells (ATCC, Cat #: CRL-5807), which are a KRAS-G12C mutant human lung cancer cell line, were suspended in a 10% fetal bovine serum-containing RPMI1640 medium (manufactured by Fujifilm Wako Pure Chemical Corporation.). The cell suspension was seeded into each well of a 384-well flat-bottom microplate and cultured in an incubator containing 5% CO2 gas at 37° C. for 1 day. The test compound was dissolved in DMSO, and diluted with DMSO to give a concentration 500 times the final concentration. The solution of the test compound in DMSO was diluted with the medium used for suspending cells and added to each well of the cell-culture plate to give a DMSO final concentration of 0.2%, followed by culture in an incubator containing 5% CO2 gas at 37° C. for another 3 days. The cell count after 3-day culture in the presence of the compound was measured using CellTiter-Glo2.0 (manufactured by Promega Corporation) in accordance with the protocol recommended by Promega Corporation. The growth inhibition rate was calculated from the following equation, and the concentration of the test compound at which 50% inhibition was achieved (IC50 (nM)) was determined. […] Growth Inhibition Rate (%)=(C−T)/(C)×100 • T: the emission intensity in a well into which a test compound was added. • C: the emission intensity in a well into which a test compound was not added.

[1] = test system: tumor-bearing mice expressing KRAS G12C mutation; settings: reported in PTL 2 and NPL 3; cited from earlier work
[2] = test system: cancer cells with KRAS G12C mutation; settings: reported in PTL 1 and NPL 2; cited from earlier work
[3] = molecular target: G12C mutant of inactive KRAS (GDP) (Homo sapiens (Human), UniProt P01116, G12C); settings: reported in PTL 1 and NPL 2; cited from earlier work
Sequence of G12C mutant of inactive KRAS (GDP) (P01116-2 other isoform, or with tags, fused parts or gaps G12C): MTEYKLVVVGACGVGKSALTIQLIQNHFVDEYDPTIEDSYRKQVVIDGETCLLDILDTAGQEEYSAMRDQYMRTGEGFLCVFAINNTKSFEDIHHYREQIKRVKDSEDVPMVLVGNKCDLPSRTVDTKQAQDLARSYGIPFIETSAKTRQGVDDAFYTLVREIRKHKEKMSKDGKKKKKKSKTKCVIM

Row | Structure (SMILES) | IC50 (NCI-H358 cells) [µM] | binding rate for G12C K-Ras4B (1-169) (G12C K-Ras4B (1-169)) | also measured
1 | C=CC(=O)N1CCN(c2ncnc3c(F)c(-c4c(O)cccc4F)c(Cl)cc23)CC1 [ARS-1620] |  |  | antitumor action [1]: exerts antitumor action in tumor-bearing mice expressing KRAS G12C mutation
2 | C=CC(=O)N1CC(N2CCN(C(=O)CNc3cc(C4(C)CC4)c(Cl)cc3O)CC2)C1 [ARS-853] |  |  | induction of apoptosis [2]: inducing apoptosis in cancer cells with KRAS G12C mutation; binding to the cysteine of the G12C mutant of inactive KRAS (GDP) [3]: binds to the cysteine of the G12C mutant of inactive KRAS (GDP)
3 | C=CC(=O)N1C[C@@H](C)[C@@H](NC(=O)c2c(Cl)nc(CNc3n[nH]c4cc(Cl)c(C(C)(C)C)cc34)n2C)C1 [Example 78, N-((3R,4R)-1-acryloyl-4-methylpyrrolidin-3-yl)-2-(((5-(tert-butyl)-6-chloro-1H-indazol-3-yl)amino)methyl)-4-chloro-1-methyl-1H-imidazole-5-carboxamide] | 0.35 | B (a binding rate of 60% or more and less than 80% is rated “B,”) | 
4 | C=CC(=O)N1CC(NC(=O)c2c(C(F)F)nc(CNc3n[nH]c4cc(Cl)c(C(C)(C)C)cc34)n2C(C)C)C1 [Example 33, N-(1-acryloylazetidin-3-yl)-2-(((5-(tert-butyl)-6-chloro-1H-indazol-3-yl)amino)methyl)-4-(difluoromethyl)-1-isopropyl-1H-imidazole-5-carboxamide] | 0.153 | A (a binding rate of 80% or more is rated “A,”) | 

Continued, in another order:

Row | IC50 (NCI-H358 cells) [µM] | Structure (SMILES) | binding rate for G12C K-Ras4B (1-169) (G12C K-Ras4B (1-169)) | also measured
5 | 0.052 | C=CC(=O)N1CC(NC(=O)c2c(Cl)nc(CNc3n[nH]c4cc(Cl)c(C(C)(C)C)cc34)n2[C@H]2CC[C@@H](OC)CC2)C1 [Example 112, N-(1-acryloylazetidin-3-yl)-2-(((5-(tert-butyl)-6-chloro-1H-indazol-3-yl)amino)methyl)-4-chloro-1-(4-methoxycyclohexyl)-1H-imidazole-5-carboxamide] | A (a binding rate of 80% or more is rated “A,”) | IC50 (KRAS G12C): 0.005 µM
6 | 0.042 | C=CC(=O)N1CC(NC(=O)c2c(Cl)nc(CNc3n[nH]c4cc(Cl)c(C(C)(C)C)cc34)n2C2CN(C(=O)OC(C)(C)C)C2)C1 [Example 106, Tert-butyl 3-(5-((1-acryloylazetidin-3-yl)carbamoyl)-2-(((5-(tert-butyl)-6-chloro-1H-indazol-3-yl)amino)methyl)-4-chloro-1H-imidazol-1-yl)azetidine-1-carboxylate] | A (a binding rate of 80% or more is rated “A,”) | 
7 | 0.052 | C=CC(=O)N1CC(NC(=O)c2c(Cl)nc(CNc3n[nH]c4cc(Cl)c(C(C)(C)C)cc34)n2[C@H]2CCOC2)C1 [Example 97, (S)—N-(1-acryloylazetidin-3-yl)-2-(((5-(tert-butyl)-6-chloro-1H-indazol-3-yl)amino)methyl)-4-chloro-1-(tetrahydrofuran-3-yl)-1H-imidazole-5-carboxamide] | A (a binding rate of 80% or more is rated “A,”) | 
